The test system of one assay is Caco-2. In words: Proliferation assay Caco-2. Format: cell-based, human. The settings on record: Caco-2, colon/rectum carcinoma, 4 days, crystal violet. On the procedure:
(§1) Cultivated human tumor cells (originally obtained from ATCC, HeLa-MaTu and HeLa-MaTu-ADR, originally obtained from Epo GmbH, Berlin, Germany) were plated at a density of 1000 to 5000 cells/measuring point, depending on the growth rate of the cell line, in a 96-well multititer plate in 200 μl of growth medium (DMEM/HAMS F12, 2 mM L-glutamine, 10% fetal calf serum). After 24 hours the cells of one plate (zero-point plate) were stained with crystal violet (see below), whereas the medium of the other plates was replaced with fresh culture medium (200 μl), to which the test substances had been added at various concentrations (0 μM, and in the range 0.01-30 μM; the final concentration of the solvent dimethyl sulfoxide was 0.5%). The cells were incubated for 4 days in the presence of the test substances. Cellular proliferation was determined by staining the cells with crystal violet: the cells were fixed by adding 20 μl/measuring point of an 11% glutaraldehyde solution for 15 min at room temperature. After washing the fixed cells with water three times, the plates were dried at room temperature. The cells were stained by adding 100 μl/measuring point of a 0.1% crystal violet solution (pH adjusted to pH3 by adding acetic acid). After washing the stained cells with water three times, the plates were dried at room temperature. The dye was dissolved by adding 100 μl/measuring point of a 10% acetic acid solution. The extinction was determined photometrically at a wavelength of 595 nm. The percentage change in cell growth was calculated by standardization of the measured values to the extinction values of the zero-point plate (=0%) and the extinction of the untreated (0 μM) cells (=100%). The measured data were standardized to 0% inhibition (cell proliferation without inhibitor) and 100% inhibition (zero-point plate). The IC50 values were determined by means of a 4-parameter fit using the company's own software.
(§2) The substances were examined in the following cell lines which, in an exemplary manner, represent the stated indications: […]

Another assay concerns MCF7. In words: Proliferation assay MCF7. The assay is classed as cell-based, human. Conditions: MCF7, estrogen receptor-positive mamma carcinoma, 4 days, crystal violet. The procedure: as §1, §2
The next assay relates to DU145. Kind of assay: Proliferation assay DU145. The assay is classed as cell-based, human. The settings on record: DU145, prostate carcinoma, 4 days, crystal violet. On the procedure:
as §1, §2

For another assay, the system named is HeLa-MaTu. In words: Proliferation assay HeLa-MaTu. Conditions: cervix carcinoma, 4 days, crystal violet. Format: cell-based, human. On the procedure:
as §1, §2

The next assay concerns HeLa-MaTu-ADR. In words: Proliferation assay HeLa-MaTu-ADR. The assay is classed as cell-based, human. The settings on record: cervix carcinoma, 4 days, crystal violet. On the procedure:
as §1, §2

A further assay deals with NCI-H460. Kind of assay: Proliferation assay NCI-H460. Format: cell-based, human. Conditions: NCI-H460, non-small-cell bronchial carcinoma, 4 days, crystal violet. On the procedure: as §1, §2
The target in assay [1] is T1, VEGF receptor tyrosine kinase-2 (VEGF-R2) (Homo sapiens, UniProt P35968).
T1 construct: GST; made in house; host or cells: baculovirus-infected insect cells (Sf9)
T1 sequence (P35968 20-1356, species assumed): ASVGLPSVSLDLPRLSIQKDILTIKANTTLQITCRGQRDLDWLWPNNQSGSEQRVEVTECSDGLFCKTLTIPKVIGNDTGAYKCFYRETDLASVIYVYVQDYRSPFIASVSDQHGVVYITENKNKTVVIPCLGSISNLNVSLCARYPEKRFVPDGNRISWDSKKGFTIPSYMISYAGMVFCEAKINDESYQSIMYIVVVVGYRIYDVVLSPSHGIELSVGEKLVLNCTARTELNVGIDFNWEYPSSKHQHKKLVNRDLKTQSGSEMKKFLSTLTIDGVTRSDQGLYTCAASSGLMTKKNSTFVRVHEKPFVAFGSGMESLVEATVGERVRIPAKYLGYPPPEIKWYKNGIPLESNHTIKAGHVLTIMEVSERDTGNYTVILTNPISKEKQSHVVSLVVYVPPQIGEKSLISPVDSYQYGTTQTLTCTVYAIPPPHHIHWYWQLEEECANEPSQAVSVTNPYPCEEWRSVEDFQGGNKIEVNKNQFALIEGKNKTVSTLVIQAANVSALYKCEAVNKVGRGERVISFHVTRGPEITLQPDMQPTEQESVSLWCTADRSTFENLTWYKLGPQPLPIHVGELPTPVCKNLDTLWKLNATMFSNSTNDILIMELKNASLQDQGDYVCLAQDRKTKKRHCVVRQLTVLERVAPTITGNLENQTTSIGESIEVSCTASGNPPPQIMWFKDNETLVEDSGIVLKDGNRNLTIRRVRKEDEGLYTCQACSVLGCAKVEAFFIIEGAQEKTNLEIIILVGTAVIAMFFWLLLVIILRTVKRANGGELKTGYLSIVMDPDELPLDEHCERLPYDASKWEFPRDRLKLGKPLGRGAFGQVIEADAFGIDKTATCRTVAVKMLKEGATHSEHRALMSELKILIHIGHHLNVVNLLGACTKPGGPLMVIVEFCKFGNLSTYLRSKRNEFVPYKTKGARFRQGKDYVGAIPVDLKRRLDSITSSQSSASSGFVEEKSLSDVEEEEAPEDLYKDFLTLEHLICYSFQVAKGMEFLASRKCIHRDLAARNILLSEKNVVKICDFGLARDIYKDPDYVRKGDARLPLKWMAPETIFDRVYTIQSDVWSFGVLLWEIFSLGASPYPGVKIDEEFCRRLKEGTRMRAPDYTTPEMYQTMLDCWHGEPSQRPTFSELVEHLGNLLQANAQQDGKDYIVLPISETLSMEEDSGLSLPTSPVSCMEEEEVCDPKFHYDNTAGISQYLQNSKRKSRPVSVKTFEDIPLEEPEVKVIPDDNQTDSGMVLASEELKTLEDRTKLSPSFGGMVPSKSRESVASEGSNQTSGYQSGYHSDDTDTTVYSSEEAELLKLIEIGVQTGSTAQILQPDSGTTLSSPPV
In words: VEGF receptor-2 kinase assay (Assay 3). Format: biochemical. The settings on record: 8 μM ATP, poly-(Glu4Tyr), 10 min 22° C.; read-out: VEGF-R2 (Assay 3) Concentration for half-maximal inhibition of the enzyme activity, IC50. On the procedure:
Recombinant VEGF receptor tyrosine kinase-2 was purified as GST fusion protein from baculovirus-infected insect cells (Sf9). Poly-(Glu4Tyr), used as kinase substrate, was purchased from Sigma.
VEGF receptor tyrosine kinase (90 ng/measuring point) was incubated for 10 min at 22° C. in the presence of various concentrations of test substances (0 μM, and within the range 0.001-30 μM) in 30 μl assay buffer [40 mM Tris/HCl pH5.5, 10 mM MgCl2, 1 mM MnCl2, 3 μM Na ortho-vanadate, 1.0 mM dithiothreitol, 8 μM adenosine triphosphate (ATP), 0.96 μg/measuring point poly-(Glu4Tyr), 0.2 μCi/measuring point ^33P-gamma ATP, 1.4% dimethyl sulfoxide]. The reaction was stopped by adding EDTA solution (250 mM, pH 8.0, 15 μl/measuring point).
(§3) From each reaction mixture, 15 μl was applied to P30 filter strips (from Wallac), and unincorporated ^33P-ATP was removed by washing the filter strips three times, for 10 min each time, in 0.5% phosphoric acid. After drying the filter strips for 1 hour at 70° C., the filter strips were covered with scintillator strips (MeltiLex™ A, from Wallac) and stoved for 1 hour at 90° C. The amount of incorporated ^33P (substrate phosphorylation) was determined by scintillation measurement in a gamma-radiation measuring instrument (Wallac). The measured data were standardized to 0% inhibition (enzyme reaction without inhibitor) and 100% inhibition (all assay components except enzyme). The IC50 values were determined by means of a 4-parameter fit using the company's own software.

Another assay concerns the target T2, CDK1/CycB (Homo sapiens, UniProt P06493).
T2 construct: purchased ProQinase GmbH, Freiburg, Germany; host or cells: baculovirus-infected insect cells (Sf9)
In words: CDK1/CycB kinase assay (Assay 1). Conditions: 0.5 μM ATP, histon IIIS, 10 min 22° C.; read-out: CDK1/CycB (Assay 1) Concentration for half-maximal inhibition of the enzyme activity, IC50. The assay is classed as biochemical. The procedure:
Recombinant CDK1 and CycB-GST fusion proteins, purified from baculovirus-infected insect cells (Sf9), were purchased from ProQinase GmbH, Freiburg, Germany. The histon HIS used as kinase substrate is commercially available from Sigma.
CDK1/CycB (200 ng/measuring point) was incubated for 10 min at 22° C. in the presence of various concentrations of test substances (0 μM, and within the range 0.01-100 μM) in assay buffer [50 mM Tris/HCl pH8.0, 10 mM MgCl2, 0.1 mM Na ortho-vanadate, 1.0 mM dithiothreitol, 0.5 μM adenosine triphosphate (ATP), 10 μg/measuring point histon IIIS, 0.2 μCi/measuring point ^33P-gamma ATP, 0.05% NP40, 1.25% dimethyl sulfoxide]. The reaction was stopped by adding EDTA solution (250 mM, pH 8.0, 15 μl/measuring point).
as §3, with “μl were” for “μl was”

The target in another assay is T3, CDK2/CycE (Homo sapiens, UniProt P24941).
T3 construct: purchased ProQinase GmbH, Freiburg, Germany; host or cells: baculovirus-infected insect cells (Sf9)
Kind of assay: CDK2/CycE kinase assay (Assay 2). The settings on record: 0.5 μM ATP, histon IIIS, 10 min 22° C.; read-out: CDK2/CycE (Assay 2) Concentration for half-maximal inhibition of the enzyme activity, IC50. Format: biochemical. On the procedure: Recombinant CDK2 and CycE-GST fusion proteins, purified from baculovirus-infected insect cells (Sf9), were purchased from ProQinase GmbH, Freiburg, Germany. Histon HIS, used as kinase substrate, was purchased from Sigma.
The reaction was stopped by adding EDTA solution (250 mM, pH 8.0, 15 μl/measuring point).
as §3, with “The measured data were standardized to 0% inhibition (enzyme reaction without inhibitor) and 100% inhibition (all assay components except enzyme).” left out

T2 sequence (P06493 whole entry): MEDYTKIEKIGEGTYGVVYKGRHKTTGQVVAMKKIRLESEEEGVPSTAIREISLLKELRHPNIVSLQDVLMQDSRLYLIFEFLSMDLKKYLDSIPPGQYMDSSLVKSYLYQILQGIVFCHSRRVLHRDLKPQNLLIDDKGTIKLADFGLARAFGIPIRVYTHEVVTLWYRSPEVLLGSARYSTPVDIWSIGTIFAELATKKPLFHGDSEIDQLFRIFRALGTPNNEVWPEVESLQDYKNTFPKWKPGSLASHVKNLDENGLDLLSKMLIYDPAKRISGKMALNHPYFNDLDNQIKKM
T2 sequence (P14635 whole entry partner): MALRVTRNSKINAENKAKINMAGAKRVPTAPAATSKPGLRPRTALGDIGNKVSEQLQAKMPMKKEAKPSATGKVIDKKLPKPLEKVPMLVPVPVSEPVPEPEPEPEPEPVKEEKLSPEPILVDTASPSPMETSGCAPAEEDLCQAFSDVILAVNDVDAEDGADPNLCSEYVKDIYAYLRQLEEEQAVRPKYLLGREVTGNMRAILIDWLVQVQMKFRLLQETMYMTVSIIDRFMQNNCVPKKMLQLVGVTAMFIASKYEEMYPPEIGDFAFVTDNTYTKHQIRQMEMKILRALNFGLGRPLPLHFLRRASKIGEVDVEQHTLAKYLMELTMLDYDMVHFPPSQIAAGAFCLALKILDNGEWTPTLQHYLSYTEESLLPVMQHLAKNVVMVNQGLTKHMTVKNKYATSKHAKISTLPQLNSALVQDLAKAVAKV

For `CCS(=N)(=O)c1ccc(Nc2ncc(C(F)(F)F)c(N[C@H](C)C(C)(C)O)n2)cc1` (mixture of isomers) [Example 7-SI-1, (RS)—S-Ethyl-S-(4-{[4-{[(R)-2-hydroxy-1,2-dimethylpropyl]amino}-5-(trifluoromethyl)pyrimidin-2-yl]amino}phenyl)sulfoximide], the IC50 turned out to be 0.196 µM with Caco-2; 0.106 µM in the assay on MCF7; 0.152 µM in the assay with DU145; 0.027 µM in the assay with HeLa-MaTu; 0.112 µM with HeLa-MaTu-ADR; 0.119 µM in the assay on NCI-H460.

Consider `C[C@@H](Nc1nc(Nc2ccc(S(C)(=N)=O)cc2)ncc1C(F)(F)F)C(C)(C)O` (mixture of isomers) [Example 9-SI-2, (RS)—S-(4-{[4-{[(1R)-2-Hydroxy-1,2-dimethylpropyl]amino}-5-(trifluoromethyl)pyrimidin-2-yl]amino}phenyl)-S-methylsulfoximide], for which the IC50 was 0.2 µM with Caco-2; 0.271 µM in the assay with MCF7; 0.185 µM in the assay on DU145; 0.021 µM with HeLa-MaTu; 0.114 µM with HeLa-MaTu-ADR; 0.112 µM with NCI-H460.

With `C[C@@H](O)[C@@H](C)Nc1nc(Nc2ccc(S(C)(=N)=O)cc2)ncc1C(F)(F)F` (mixture of isomers) [Example 8-SI-2, (RS)—S-(4-{[4-{[(1R,2R)-2-Hydroxy-1-methylpropyl]amino}-5-(trifluoromethyl)pyrimidin-2-yl]-amino}phenyl)-S-methylsulfoximide], the IC50 in the assay with Caco-2 was determined as 0.041 µM; in the assay with MCF7 it was 0.023 µM; in the assay on DU145, 0.03 µM; in the assay with HeLa-MaTu, 0.01 µM; in the assay on HeLa-MaTu-ADR, 0.024 µM; in the assay with NCI-H460, 0.028 µM.

`CCS(=N)(=O)c1ccc(Nc2ncc(C(F)(F)F)c(N[C@H](C)C(C)(C)O)n2)cc1` (mixture of isomers) [Example 7-SI-2, (RS)—S-Ethyl-S-(4-{[4-{[(R)-2-hydroxy-1,2-dimethylpropyl]amino}-5-(trifluoromethyl)pyrimidin-2-yl]amino}phenyl)sulfoximide]: the IC50 in the assay with Caco-2 came out at 0.067 µM; with MCF7, 0.039 µM; with DU145 it was 0.042 µM; with HeLa-MaTu, 0.01 µM; with HeLa-MaTu-ADR, 0.036 µM; in the assay with NCI-H460 it was 0.051 µM.

On to `C[C@@H](O)[C@@H](C)Oc1nc(Nc2ccc(S(=N)(=O)C3CC3)cc2)ncc1C(F)(F)F` (mixture of isomers) [Example 1-SI-1, (RS)—S-Cyclopropyl-S-(4-{[4-{[(1R,2R)-2-hydroxy-1-methylpropyl]oxy}-5-(trifluoromethyl)-pyrimidin-2-yl]amino}phenyl)sulfoximide], for which the IC50 turned out to be 0.08 µM with Caco-2; 0.048 µM in the assay with MCF7; 0.114 µM in [1]; 0.045 µM with DU145; 0.013 µM in the assay with HeLa-MaTu (Homo sapiens, 96 h); 0.035 µM with HeLa-MaTu-ADR. The compound further returned an IC50 in the assay with NCI-H460 of 0.048 µM.

As for `C[C@@H](Nc1nc(Nc2ccc(S(C)(=N)=O)cc2)ncc1C(F)(F)F)C(C)(C)O` (single isomer, unassigned) [Example 9-SI-2], the values for the IC50 (in assay [1]; on CDK1/CycB; at CDK2/CycE) were 0.154 µM, 0.017 µM and 0.003 µM, respectively.

For the compound `CCS(=N)(=O)c1ccc(Nc2ncc(C(F)(F)F)c(N[C@H](C)[C@@H](C)O)n2)cc1` (mixture of isomers) [Example 6-SI-1, (RS)—S-Ethyl-S-(4-{[4-{[(1R,2R)-2-hydroxy-1-methylpropyl]amino}-5-(trifluoromethyl)-pyrimidin-2-yl]amino}phenyl)sulfoximide], the IC50 was 0.12 µM in the assay on Caco-2; 0.059 µM with MCF7; 0.073 µM in [1]; 0.1 µM with DU145; 0.01 µM at CDK1/CycB; 0.005 µM at CDK2/CycE. Also, the results for the IC50 with HeLa-MaTu-ADR and in the assay with NCI-H460 were 0.035 µM and 0.05 µM, respectively.

On to `CCS(=N)(=O)c1ccc(Nc2ncc(C(F)(F)F)c(N[C@H](C)C(C)(C)O)n2)cc1` (single isomer, unassigned) [Example 7-SI-1], for which the IC50 in [1] was found to be 0.143 µM; on CDK1/CycB it was 0.024 µM; on CDK2/CycE it was 0.004 µM.

In the case of `C[C@@H](Oc1nc(Nc2ccc(S(C)(=N)=O)cc2)ncc1C(F)(F)F)C(C)(C)O` (mixture of isomers) [Example 3, (RS)—S-(4-{[4-{[(R)-2-Hydroxy-1,2-dimethylpropyl]oxy}-5-(trifluoromethyl)pyrimidin-2-yl]-amino}phenyl)-S-methylsulfoximide], the IC50 in the assay on Caco-2 (Homo sapiens, Caco-2, 96 h) is 0.098 µM; with MCF7 (Homo sapiens, MCF7, 96 h) it was 0.07 µM; with DU145 (Homo sapiens, DU-145, 96 h), 0.076 µM; on CDK1/CycB, 0.013 µM; at CDK2/CycE it was 0.01 µM; in the assay with HeLa-MaTu (Homo sapiens, 96 h), 0.07 µM. Further, the IC50 turned out to be 0.063 µM in the assay on HeLa-MaTu-ADR (Homo sapiens, 96 h) and 0.113 µM with NCI-H460 (Homo sapiens, NCI-H460, 96 h).
